According to patent US20150250176A1, “METHOD FOR ENHANCING TOLERANCE TO ABIOTIC STRESS IN PLANTS USING CARBOXAMIDE OR THIOCARBOXAMIDE DERIVATIVES” (BAYER CROPSCIENCE AG, priority 2012, published 2015):

Experiments:
[1] = logP determination by HPLC on a reversed-phase column (EEC Directive 79/831 Annex V.A8); conditions: reversed-phase C18 HPLC column
Experimental: Temperature: 40° C.; Mobile phases: 0.1% aqueous formic acid and acetonitrile; linear gradient from 10% acetonitrile to 90% acetonitrile.
Calibration was carried out using unbranched alkan-2-ones (comprising 3 to 16 carbon atoms) with known logP values (determination of the logP values by the retention times using linear interpolation between two successive alkanones). lambda-max-values were determined using UV-spectra from 200 nm to 400 nm and the peak values of the chromatographic signals.

BRSNS (Brassica napus) = assay: Drought stress test on crop plants, spray application, BRSNS; type: in vivo; conditions: mean of 2 or more experiments
Experimental: (§1) Seeds of monocotyledonous and dicotyledonous crop plants were placed in sandy loam in wood-fiber pots, covered with soil and cultivated in a greenhouse under good growth conditions. The test plants were treated at the early leaf stage (BBCH10-BBCH13). To ensure uniform water supply before commencement of stress, the potted plants were supplied with the maximum amount of water immediately beforehand by dam irrigation.
(§2) The inventive compounds, formulated in the form of wettable powders (WP) were sprayed onto the green parts of the plants as an aqueous suspension at an equivalent water application rate of 600 l/ha with addition of 0.2% wetting agent (agrotin). Substance application was followed immediately by stress treatment of the plants, for which the pots were transferred in plastic inserts in order to prevent subsequent, excessively rapid drying.
(§3) Drought stress was induced by gradual drying out under the following conditions: • “day”: 14 hours with illumination at ˜26° C. • “night”: 10 hours without illumination at ˜18° C.
(§4) The duration of the respective stress phases was guided mainly by the state of the untreated, stressed control plants and thus varies from crop to crop. It was ended (by re-irrigating or transfer to a greenhouse with good growth conditions) as soon as irreversible damage is observed on the untreated, stressed control plants. In the case of dicotyledonous crops, for example oilseed rape and soya, the duration of the drought stress phase was between 3 and 6 days, in the case of monocotyledonous crops, for example wheat, barley or corn, between 6 and 11 days.
(§5) The end of the stress phase was followed by an approx. 5-7-day recovery phase, during which the plants were once again kept under good growth conditions in a greenhouse. In order to rule out any influence of the effects observed by any fungicidal action of the test compounds, it was additionally ensured that the tests proceed without fungal infection and without infection pressure.
(§6) After the recovery phase had ended, the intensities of damage were rated visually compared to untreated, unstressed controls of the same age (in the case of drought stress) or the same growth stage (in the case of cold stress). The intensity of damage was first assessed as a percentage (100% =plants have died, 0% =like control plants). These values were then used to calculate the efficacy of the test compounds (=percentage reduction in the intensity of damage as a result of substance application) by the following formula:
(§7) [formula] • EF: efficacy (%) • DVus: damage value of the untreated, stressed control • […] with test compound
(§8) The tables below list mean values in each case from 2 or more independent experiments.
(§9) Tables A.1 to A.3 show, by way of example, the efficacies of compound of formula (I) as herein defined under drought stress and in conjunction with application to different crop plants, i.e. in table A.1 on application to BRSNS (Brassica napus), in table A.2 on application to TRZAS (Triticum aestivum) and in table A.3 on application to ZEAMX (Zea mays): […]

[2] = tested on: TRZAS (Triticum aestivum); assay: Drought stress test on crop plants, spray application, TRZAS; type: in vivo; conditions: for percent reduction in drought damage at 25 g/ha / percent reduction in drought damage at 250 g/ha / pest or weed control at 25 g/ha / pest or weed control at 250 g/ha: read-out: EF (TRZAS), efficacy = percentage reduction in the intensity of damage; for pest or weed control at 25 g/ha: dosage 25 g/ha
Experimental: as §1, §2, §3, §4, §5, §6, §7, §8, §9

ZEAMX (Zea mays) = assay: Drought stress test on crop plants, spray application, ZEAMX; type: in vivo; conditions: dosage 250 g/ha, mean of 2 or more experiments
Experimental: as §1, §2
Drought stress was induced by gradual drying out under the following conditions: • “day”: 14 hours with illumination at ˜26° C. • “night”: 10 hours without illumination at ˜18° C. […]
After the recovery phase had ended, the intensities of damage were rated visually compared to untreated, unstressed controls of the same age (in the case of drought stress) or the same growth stage (in the case of cold stress). The intensity of damage was first assessed as a percentage (100% =plants have died, 0% =like control plants). […]

[3] = drought stress, spray, mean of 2 or more experiments
[4] = drought stress, dosage 250 g/ha, spray, mean of 2 or more experiments

## CC(C)c1ccccc1CN(C(=O)c1c(C(F)F)nn(C)c1F)C1CC1 [Compound A1, N-cyclopropyl-3-(difluoromethyl)-5-fluoro-N-(2-isopropylbenzyl)-1-methyl-1H-pyrazole-4-carboxamide]
[1]
  chromatographic logP: 3.35

## Cn1nc(C(F)F)c(C(=O)N(Cc2ccccc2C2CC2)C2CC2)c1F [Compound A2, N-cyclopropyl-N-(2-cyclopropylbenzyl)-3-(difluoromethyl)-5-fluoro-1-methyl-1H-pyrazole-4-carboxamide]
BRSNS (Brassica napus); dosage 2.5 g/ha
  EF (BRSNS), efficacy = percentage reduction in the intensity of damage: >5%
BRSNS (Brassica napus); dosage 25 g/ha
  EF (BRSNS), efficacy = percentage reduction in the intensity of damage: >5%
BRSNS (Brassica napus); dosage 250 g/ha
  EF (BRSNS), efficacy = percentage reduction in the intensity of damage: >5%
[1]
  chromatographic logP: 3.44

## Cn1nc(C(F)F)c(C(=O)N(Cc2ccccc2C(C)(C)C)C2CC2)c1F [Compound A3, N-(2-tert-butylbenzyl)-N-cyclopropyl-3-(difluoromethyl)-5-fluoro-1-methyl-1H-pyrazole-4-carboxamide]
[1]
  chromatographic logP: 4.06
[2]
  percent reduction in drought damage at 25 g/ha: > 5%
  percent reduction in drought damage at 250 g/ha: > 5%

## CCc1ccc(Cl)cc1CN(C(=O)c1c(C(F)F)nn(C)c1F)C1CC1 [Compound A4, N-(5-chloro-2-ethylbenzyl)-N-cyclopropyl-3-(difluoromethyl)-5-fluoro-1-methyl-1H-pyrazole-4-carboxamide]
[1]
  chromatographic logP: 3.76
[2]
  percent reduction in drought damage at 25 g/ha: > 5%

## CC(C)c1ccc(Cl)cc1CN(C(=O)c1c(C(F)F)nn(C)c1F)C1CC1 [Compound A5, N-(5-chloro-2-isopropylbenzyl)-N-cyclopropyl-3-(difluoromethyl)-5-fluoro-1-methyl-1H-pyrazole-4-carboxamide]
BRSNS (Brassica napus); dosage 25 g/ha
  EF (BRSNS), efficacy = percentage reduction in the intensity of damage: >5%
[1]
  chromatographic logP: 4.09
[2]; [3]
  pest or weed control at 25 g/ha: > 5%
[2]; [4]
  pest or weed control at 250 g/ha: > 5%

## CCc1ccc(F)cc1CN(C(=O)c1c(C(F)F)nn(C)c1F)C1CC1 [Compound A6, N-cyclopropyl-3-(difluoromethyl)-N-(2-ethyl-5-fluorobenzyl)-5-fluoro-1-methyl-1H-pyrazole-4-carboxamide]
BRSNS (Brassica napus); dosage 25 g/ha
  EF (BRSNS), efficacy = percentage reduction in the intensity of damage: >5%
[1]
  chromatographic logP: 3.41
[2]; [3]
  pest or weed control at 25 g/ha: > 5%
[2]; [4]
  pest or weed control at 250 g/ha: > 5%

## CC(C)c1ccc(F)cc1CN(C(=O)c1c(C(F)F)nn(C)c1F)C1CC1 [Compound A7, N-cyclopropyl-3-(difluoromethyl)-5-fluoro-N-(5-fluoro-2-isopropylbenzyl)-1-methyl-1H-pyrazole-4-carboxamide]
BRSNS (Brassica napus); dosage 250 g/ha
  EF (BRSNS), efficacy = percentage reduction in the intensity of damage: >5%
[1]
  chromatographic logP: 3.7

## Cn1nc(C(F)F)c(C(=O)N(Cc2cc(F)ccc2C2CC2)C2CC2)c1F [Compound A8, N-cyclopropyl-N-(2-cyclopropyl-5-fluorobenzyl)-3-(difluoromethyl)-5-fluoro-1-methyl-1H-pyrazole-4-carboxamide]
BRSNS (Brassica napus); dosage 2.5 g/ha
  EF (BRSNS), efficacy = percentage reduction in the intensity of damage: >5%
[1]
  chromatographic logP: 3.46
ZEAMX (Zea mays)
  EF (ZEAMX), efficacy = percentage reduction in the intensity of damage: >5%

## Cn1nc(C(F)F)c(C(=O)N(Cc2cc(F)ccc2C2CCCC2)C2CC2)c1F [Compound A9, N-(2-cyclopentyl-5-fluorobenzyl)-N-cyclopropyl-3-(difluoromethyl)-5-fluoro-1-methyl-1H-pyrazole-4-carboxamide]
[1]
  chromatographic logP: 4.21

## CC(C)c1cccc(F)c1CN(C(=O)c1c(C(F)F)nn(C)c1F)C1CC1 [Compound A10, N-cyclopropyl-3-(difluoromethyl)-5-fluoro-N-(2-fluoro-6-isopropylbenzyl)-1-methyl-1H-pyrazole-4-carboxamide]
[1]
  chromatographic logP: 3.65

## CCc1ccc(C)cc1CN(C(=O)c1c(C(F)F)nn(C)c1F)C1CC1 [Compound A11, N-cyclopropyl-3-(difluoromethyl)-N-(2-ethyl-5-methylbenzyl)-5-fluoro-1-methyl-1H-pyrazole-4-carboxamide]
[1]
  chromatographic logP: 3.7
[2]; [3]
  pest or weed control at 25 g/ha: > 5%

## Cc1ccc(C(C)C)c(CN(C(=O)c2c(C(F)F)nn(C)c2F)C2CC2)c1 [Compound A12, N-cyclopropyl-3-(difluoromethyl)-5-fluoro-N-(2-isopropyl-5-methylbenzyl)-1-methyl-1H-pyrazole-4-carboxamide]
BRSNS (Brassica napus); dosage 2.5 g/ha
  EF (BRSNS), efficacy = percentage reduction in the intensity of damage: >5%
BRSNS (Brassica napus); dosage 25 g/ha
  EF (BRSNS), efficacy = percentage reduction in the intensity of damage: >5%
BRSNS (Brassica napus); dosage 250 g/ha
  EF (BRSNS), efficacy = percentage reduction in the intensity of damage: >5%
[1]
  chromatographic logP: 3.99

## Cc1ccc(C2CC2)c(CN(C(=O)c2c(C(F)F)nn(C)c2F)C2CC2)c1 [Compound A13, N-cyclopropyl-N-(2-cyclopropyl-5-methylbenzyl)-3-(difluoromethyl)-5-fluoro-1-methyl-1H-pyrazole-4-carboxamide]
[1]
  chromatographic logP: 3.76

## Cc1ccc(C(C)(C)C)c(CN(C(=O)c2c(C(F)F)nn(C)c2F)C2CC2)c1 [Compound A14, N-(2-tert-butyl-5-methylbenzyl)-N-cyclopropyl-3-(difluoromethyl)-5-fluoro-1-methyl-1H-pyrazole-4-carboxamide]
[1]
  chromatographic logP: 4.36
[2]
  percent reduction in drought damage at 250 g/ha: > 5%

## Cn1nc(C(F)F)c(C(=O)N(Cc2cc(Cl)ccc2C(F)(F)F)C2CC2)c1F [Compound A15, N-[5-chloro-2-(trifluoromethyl)benzyl]-N-cyclopropyl-3-(difluoromethyl)-5-fluoro-1-methyl-1H-pyrazole-4-carboxamide]
[1]
  chromatographic logP: 3.8

## Cc1ccc(C(F)(F)F)c(CN(C(=O)c2c(C(F)F)nn(C)c2F)C2CC2)c1 [Compound A16, N-cyclopropyl-3-(difluoromethyl)-5-fluoro-1-methyl-N-[5-methyl-2-(trifluoromethyl)benzyl]-1H-pyrazole-4-carboxamide]
[1]
  chromatographic logP: 3.78
[2]
  percent reduction in drought damage at 250 g/ha: > 5%

## Cn1nc(C(F)F)c(C(=O)N(Cc2c(Cl)cccc2C(F)(F)F)C2CC2)c1F [Compound A17, N-[2-chloro-6-(trifluoromethyl)benzyl]-N-cyclopropyl-3-(difluoromethyl)-5-fluoro-1-methyl-1H-pyrazole-4-carboxamide]
[1]
  chromatographic logP: 3.46

## Cn1nc(C(F)F)c(C(=O)N(Cc2c(C(F)(F)F)ccc(Cl)c2F)C2CC2)c1F [Compound A18, N-[3-chloro-2-fluoro-6-(trifluoromethyl)benzyl]-N-cyclopropyl-3-(difluoromethyl)-5-fluoro-1-methyl-1H-pyrazole-4-carboxamide]
[1]
  chromatographic logP: 3.62

## CCc1cc(C)c(C)cc1CN(C(=O)c1c(C(F)F)nn(C)c1F)C1CC1 [Compound A19, N-cyclopropyl-3-(difluoromethyl)-N-(2-ethyl-4,5-dimethylbenzyl)-5-fluoro-1-methyl-1H-pyrazole-4-carboxamide]
BRSNS (Brassica napus); dosage 25 g/ha
  EF (BRSNS), efficacy = percentage reduction in the intensity of damage: >5%
[1]
  chromatographic logP: 4.04
[2]; [3]
  pest or weed control at 25 g/ha: > 5%

## N-cyclopropyl-3-(difluoromethyl)-5-fluoro-N-(2-isopropylbenzyl)-1-methyl-1H-pyrazole-4-carbothio-amide [Compound A20]
[2]; [4]
  EF (TRZAS), efficacy = percentage reduction in the intensity of damage: >5%
